From patent US9695155B2, “Herbicidal substituted pyrimidinyloxy benzene compounds” (E. I. DU PONT DE NEMOURS AND COMPANY, priority 2013, dated 2017)

Tests used:
Italian ryegrass [1] = assay: Test D postemergence; type: in vivo, Lolium multiflorum
Text: (§1) Seeds of plant species selected from bluegrass (annual bluegrass, Poa annua), blackgrass (Alopecurus myosuroides), canarygrass (littleseed canarygrass, Phalaris minor), chickweed (common chickweed, Stellaria media), galium (catchweed bedstraw, Galium aparine), bromegrass, downy (downy bromegrass, Bromus tectorum), field poppy (Papaver rhoeas), field violet (Viola arvensis), green foxtail (Setaria viridis), deadnettle (henbit deadnettle, Lamium amplexicaule), Italian ryegrass (Lolium multiflorum), kochia (Kochia scoparia), lambsquarters (Chenopodium album), oilseed rape (Brassica napus), pigweed (Amaranthus retroflexus), chamomile (scentless chamomile, Matricaria inodora), Russian thistle (Salsola kali), speedwell (bird's-eye speedwell, Veronica persica), spring barley (Hordeum vulgare), spring wheat (Triticum aestivum), wild buckwheat (Polygonum convolvulus), wild mustard (Sinapis arvensis), wild oat (Avena fatua), wild radish (Raphanus raphanistrum), windgrass (Apera spica-venti), winter barley (Hordeum vulgare), and winter wheat (Triticum aestivum) were planted into a silt loam soil and treated preemergence with test chemicals formulated in a non-phytotoxic solvent mixture which included a surfactant.
(§2) At the same time, these species were planted in pots containing Redi-Earth® planting medium (Scotts Company, 14111 Scottslawn Road, Marysville, Ohio 43041) comprising spaghnum peat moss, vermiculite, wetting agent and starter nutrients and treated with postemergence applications of the test chemicals formulated in the same manner. Plants ranged in height from 2 to 18 cm (1- to 4-leaf stage). Treated plants and controls were maintained in a controlled growth environment for 7 to 21 days after which time all species were compared to controls and visually evaluated. Plant response ratings, summarized in Table D, are based on a scale of 0 to 100 where 0 is no effect and 100 is complete control. A dash (-) response means no test result.

galium = assay: Test D postemergence; type: in vivo, Galium aparine
Text: as §1, §2

oilseed rape = assay: Test D postemergence; type: in vivo, Brassica napus
Text: as §1, §2

wild buckwheat = assay: Test D postemergence; type: in vivo, Polygonum convolvulus; details: Postemergence, scale 0 to 100 (0 no effect, 100 complete control)
Text: as §1, §2

chamomile = assay: Test D postemergence; type: in vivo, Matricaria inodora
Text: as §1, §2

bluegrass = assay: Test D preemergence; type: in vivo, Poa annua
Text: as §1, §2

canarygrass = assay: Test D postemergence; type: in vivo, Phalaris minor
Text: as §1, §2

blackgrass = assay: Test D preemergence; type: in vivo, Alopecurus myosuroides
Text: as §1, §2

deadnettle = assay: Test D postemergence; type: in vivo, Lamium amplexicaule
Text: as §1, §2

Italian ryegrass [2] = assay: Test D preemergence; type: in vivo, Lolium multiflorum
Text: as §1, §2

kochia = assay: Test D preemergence; type: in vivo, Kochia scoparia
Text: as §1, §2

field violet = assay: Test D preemergence; type: in vivo, Viola arvensis
Text: as §1, §2

[3] = 62 g ai/ha, scale 0 to 100 (0 no effect, 100 complete control)
[4] = 125 g ai/ha, scale 0 to 100 (0 no effect, 100 complete control)
[5] = 250 g ai/ha, scale 0 to 100 (0 no effect, 100 complete control)
[6] = 31 g ai/ha, scale 0 (no effect) to 100 (complete control)

N#Cc1cccc(Oc2ncc(Cl)cn2)c1-n1cc(-n2ccc(C(F)(F)F)n2)cn1 [Compound 284]
0: Plant response rating, Chamomile (chamomile; 31 g ai/ha, scale 0-100) | Plant response rating, Chamomile (chamomile; [3]) | Plant response rating, Bluegrass (bluegrass; [6]) | Plant response rating, Blackgrass (blackgrass; [6]) | Plant response rating, Ryegrass, Italian (Italian ryegrass [2]; [6]) | Plant response rating, Ryegrass, Italian (Italian ryegrass [2]; 125 g ai/ha, scale 0-100) | Plant response rating, Kochia (kochia; [6])
25: Plant response rating, Bluegrass (bluegrass; 250 g ai/ha, scale 0-100) | Plant response rating, Canarygrass (canarygrass; [4]) | Plant response rating, Canarygrass (canarygrass; [5])
65: Plant response rating, Oilseed Rape (oilseed rape; 31 g ai/ha, scale 0-100) | Plant response rating, Blackgrass (blackgrass; 250 g ai/ha, scale 0-100)
30: Plant response rating, Ryegrass, Italian (Italian ryegrass [2]; 250 g ai/ha, scale 0-100)
45: Plant response rating, Field Violet (field violet; [6])
15: Plant response rating, Ryegrass, Italian (Italian ryegrass [1]; [4]) | Plant response rating, Ryegrass, Italian (Italian ryegrass [1]; [5]) | Plant response rating, Bluegrass (bluegrass; 62 g ai/ha, scale 0-100)
95: Plant response rating, Galium (galium; [5]) | Plant response rating, Kochia (kochia; 250 g ai/ha, scale 0-100)
100: Plant response rating, Oilseed Rape (oilseed rape; [4]) | Plant response rating, Oilseed Rape (oilseed rape; [5]) | Plant response rating, Buckwheat, Wild (wild buckwheat; 62 g ai/ha) | Plant response rating, Buckwheat, Wild (wild buckwheat; 31 g ai/ha) | Plant response rating, Buckwheat, Wild (wild buckwheat; 125 g ai/ha) | Plant response rating, Buckwheat, Wild (wild buckwheat; 250 g ai/ha) | Plant response rating, Deadnettle (deadnettle; [3]) | Plant response rating, Deadnettle (deadnettle; [4]) | Plant response rating, Deadnettle (deadnettle; [5]) | Plant response rating, Kochia (kochia; 125 g ai/ha, scale 0-100) | Plant response rating, Field Violet (field violet; 62 g ai/ha, scale 0-100) | Plant response rating, Field Violet (field violet; 125 g ai/ha, scale 0-100) | Plant response rating, Field Violet (field violet; 250 g ai/ha, scale 0-100)
10: Plant response rating, Ryegrass, Italian (Italian ryegrass [1]; 31 g ai/ha, scale 0-100) | Plant response rating, Ryegrass, Italian (Italian ryegrass [1]; [3]) | Plant response rating, Chamomile (chamomile; [4]) | Plant response rating, Chamomile (chamomile; [5]) | Plant response rating, Blackgrass (blackgrass; 62 g ai/ha, scale 0-100)
35: Plant response rating, Blackgrass (blackgrass; 125 g ai/ha, scale 0-100)
85: Plant response rating, Galium (galium; [3]) | Plant response rating, Galium (galium; [4])
70: Plant response rating, Galium (galium; 31 g ai/ha, scale 0-100) | Plant response rating, Oilseed Rape (oilseed rape; [3]) | Plant response rating, Deadnettle (deadnettle; 31 g ai/ha, scale 0-100)
20: Plant response rating, Bluegrass (bluegrass; 125 g ai/ha, scale 0-100) | Plant response rating, Canarygrass (canarygrass; 31 g ai/ha, scale 0-100) | Plant response rating, Canarygrass (canarygrass; [3]) | Plant response rating, Kochia (kochia; 62 g ai/ha, scale 0-100)
